Measurements from patent publication US11566007B2, “Ras inhibitors” (Revolution Medicines, Inc., priority 2019, dated 2023).

Tests used:
NCI-H358 (K-Ras G12C) = test: CellTiter-Glo cell viability assay, NCI-H358; format: cell-based, human; details: Homo sapiens, NCI-H358, 120 h, NCI-H358, 5-day treatment; class symbols; read-out: Additional H358 Cell Viability assay data (K-Ras G12C, IC50)
How it was run: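 Compounds were dispensed directly onto K-Ras mutant cells and incubated until day 5, then plates were equilibrated to room temperature for about 30 minutes before CellTiter-Glo luminescence. Signals were normalized as (sample/average DMSO)*100 and fitted by four-parameter logistic fit.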

K-Ras G13C = K-Ras G13C (Homo sapiens (Human), UniProt P01116+P62937, G13C); test: Ras-Raf (BRAF RBD) disruption / FRET / MOA assay, KRAS G13C; format: biochemical; details: KRAS G13C; Ras-Raf disruption/FRET/MOA assay; read-out: IC50* KRAS G13C FRET data
K-Ras G13C, sequence (P01116-2 other isoform, or with tags, fused parts or gaps G13C): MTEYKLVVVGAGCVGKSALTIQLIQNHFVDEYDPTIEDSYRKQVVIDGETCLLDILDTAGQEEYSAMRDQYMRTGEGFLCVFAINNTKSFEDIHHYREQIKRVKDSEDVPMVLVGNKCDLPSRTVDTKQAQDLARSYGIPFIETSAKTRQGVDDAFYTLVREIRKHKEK
K-Ras G13C, sequence (P62937 whole entry): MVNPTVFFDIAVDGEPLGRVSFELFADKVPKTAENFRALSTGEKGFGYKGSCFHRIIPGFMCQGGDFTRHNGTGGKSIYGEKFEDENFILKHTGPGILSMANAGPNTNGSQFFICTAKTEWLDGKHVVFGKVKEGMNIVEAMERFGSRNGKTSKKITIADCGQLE
How it was run: (§1)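 TR-FRET read-out: a drop in ratio relative to DMSO wells marks disruption of the Ras:RAF complex, reported as IC50. Compounds (3-fold series, 10 points, top 30 μM final) incubated 3 h at 25° C before Eu-anti-His 10 nM and APC-anti-GST 50 nM, 1.5 h more.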

NRAS Q61R = NRAS Q61R (Homo sapiens (Human), UniProt P01111+P62937, Q61R); test: Ras-Raf (BRAF RBD) disruption / FRET / MOA assay, NRAS Q61R; format: biochemical; details: NRAS Q61R; Ras-Raf disruption/FRET/MOA assay; read-out: IC50* NRAS Q61R FRET data
NRAS Q61R, sequence (P01111 whole entry Q61R): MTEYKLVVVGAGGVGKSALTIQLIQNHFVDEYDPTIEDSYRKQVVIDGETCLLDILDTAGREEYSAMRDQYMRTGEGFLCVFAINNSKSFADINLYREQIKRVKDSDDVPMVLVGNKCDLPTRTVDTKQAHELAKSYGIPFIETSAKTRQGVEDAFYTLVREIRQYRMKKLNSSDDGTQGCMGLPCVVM
NRAS Q61R, sequence (P62937 whole entry): as the sequence (P62937 whole entry) above
How it was run: (§2)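 Compounds were tested as a 10-point 3-fold dilution series from 30 μM final for their ability to drive ternary complex formation between nucleotide-loaded Ras and cyclophilin A, displacing the BRAF RBD. After 3 h at 25° C., anti-His Eu-W1024 (10 nM) and anti-GST allophycocyanin (50 nM) were added for 1.5 h. A TR-FRET ratio decrease versus DMSO gave IC50.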

NRAS Q61K = NRAS Q61K (Homo sapiens (Human), UniProt P01111+P62937, Q61K); test: Ras-Raf (BRAF RBD) disruption / FRET / MOA assay, NRAS Q61K; format: biochemical; details: NRAS Q61K; Ras-Raf disruption/FRET/MOA assay; read-out: IC50* NRAS Q61K FRET data
NRAS Q61K, sequence (P01111 whole entry Q61K): as the sequence (P01111 whole entry Q61R) above, with R61K counted along it
NRAS Q61K, sequence (P62937 whole entry): as the sequence (P62937 whole entry) above
How it was run: as §2

KRAS WT = KRAS WT (Homo sapiens (Human), UniProt P01116+P62937); test: Ras-Raf (BRAF RBD) disruption / FRET / MOA assay, KRAS WT; format: biochemical; details: read-out: IC50* KRAS WT FRET data
KRAS WT, sequence (P01116-2 other isoform, or with tags, fused parts or gaps): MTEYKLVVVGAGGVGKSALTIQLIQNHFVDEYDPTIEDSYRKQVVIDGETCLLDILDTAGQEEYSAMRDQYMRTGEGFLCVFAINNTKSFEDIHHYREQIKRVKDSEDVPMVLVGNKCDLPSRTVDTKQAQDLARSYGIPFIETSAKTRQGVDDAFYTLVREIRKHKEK
KRAS WT, sequence (P62937 whole entry): as the sequence (P62937 whole entry) above
How it was run: as §1

KRAS G12S = KRAS G12S (Homo sapiens (Human), UniProt P01116+P62937, G12S); test: Ras-Raf (BRAF RBD) disruption / FRET / MOA assay, KRAS G12S; format: biochemical; details: Ras-Raf disruption/FRET/MOA assay; class symbols; read-out: KRAS G12S FRET data IC50
KRAS G12S, sequence (P01116-2 other isoform, or with tags, fused parts or gaps G12S): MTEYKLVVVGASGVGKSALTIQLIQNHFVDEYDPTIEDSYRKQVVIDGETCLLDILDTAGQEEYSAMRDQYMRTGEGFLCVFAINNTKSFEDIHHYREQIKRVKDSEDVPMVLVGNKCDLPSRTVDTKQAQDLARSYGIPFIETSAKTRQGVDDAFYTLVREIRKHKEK
KRAS G12S, sequence (P62937 whole entry): as the sequence (P62937 whole entry) above
How it was run: as §1

KRAS Q61H = KRAS Q61H (Homo sapiens (Human), UniProt P01116+P62937, Q61H); test: Ras-Raf (BRAF RBD) disruption / FRET / MOA assay, KRAS Q61H; format: biochemical; details: Ras-Raf disruption/FRET/MOA assay; class symbols; read-out: KRAS Q61H FRET data IC50
KRAS Q61H, sequence (P01116-2 other isoform, or with tags, fused parts or gaps Q61H): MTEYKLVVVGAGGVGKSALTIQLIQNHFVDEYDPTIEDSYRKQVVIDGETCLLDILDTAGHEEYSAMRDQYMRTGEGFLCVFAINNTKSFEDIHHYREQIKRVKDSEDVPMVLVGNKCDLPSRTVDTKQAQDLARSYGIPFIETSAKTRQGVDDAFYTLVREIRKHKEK
KRAS Q61H, sequence (P62937 whole entry): as the sequence (P62937 whole entry) above
How it was run: as §2

C=CC(=O)N(C)CCN1CCN(C(=O)N(C)[C@H](C(=O)N[C@H]2Cc3nc(cs3)-c3ccc4c(c3)c(c(-c3cccnc3[C@H](C)OC)n4CC)CC(C)(C)COC(=O)[C@@H]3CCCN(N3)C2=O)C(C)C)CC1 (atropisomer, axis not shown) [Example A630]
IC50 (NCI-H358 (K-Ras G12C)): 0.01 to 0.1 µM
IC50 (K-Ras G13C): 0.01 to 0.1 µM
IC50 (NRAS Q61R): 0.1 to 1 µM
IC50 (NRAS Q61K): 0.1 to 1 µM
IC50 (KRAS WT): 0.1 to 1 µM
IC50 (KRAS G12S): 0.1 to 1 µM
IC50 (KRAS Q61H): 0.1 to 1 µM

C=CC(=O)N(C)[C@H]1CN(C(=O)N(C)[C@H](C(=O)N[C@H]2Cc3nc(cs3)-c3ccc4c(c3)c(c(-c3cccnc3[C@H](C)OC)n4CC)CC(C)(C)COC(=O)[C@@H]3CCCN(N3)C2=O)C(C)C)C[C@H]1F (atropisomer, axis not shown) [Example A631]
IC50 (NCI-H358 (K-Ras G12C)): < 0.01 µM
IC50 (K-Ras G13C): 0.1 to 1 µM
IC50 (NRAS Q61R): 0.1 to 1 µM
IC50 (NRAS Q61K): 0.01 to 0.1 µM
IC50 (KRAS WT): 0.1 to 1 µM
IC50 (KRAS G12S): 0.1 to 1 µM
IC50 (KRAS Q61H): 0.01 to 0.1 µM

C=CC(=O)N1CC[C@H](C(=O)N(C)[C@@H](CC(F)(F)F)C(=O)N[C@H]2Cc3cccc(c3)-c3ccc4c(c3)c(c(-c3cccnc3[C@H](C)OC)n4CC)CC(C)(C)COC(=O)[C@@H]3CCCN(N3)C2=O)C1 (atropisomer, axis not shown) [Example A639]
IC50 (NCI-H358 (K-Ras G12C)): 0.1 to 1 µM
IC50 (K-Ras G13C): 1 to 10 µM
IC50 (NRAS Q61R): 1 to 10 µM
IC50 (NRAS Q61K): 1 to 10 µM
IC50 (KRAS WT): 1 to 10 µM
IC50 (KRAS G12S): 1 to 10 µM
IC50 (KRAS Q61H): 1 to 10 µM

CCn1c(-c2cccnc2[C@H](C)OC)c2c3cc(ccc31)N1CCO[C@@H](C[C@H](NC(=O)[C@@H](COC3CCN(C(=O)C#CC(C)(C)N(C)C)CC3)C(C)C)C(=O)N3CCC[C@H](N3)C(=O)OCC(C)(C)C2)C1 (atropisomer, axis not shown) [Example A643, (2R)-2-(((1-(4-(dimethylamino)-4-methylpent-2-ynoyl)piperidin-4-yl)oxy)methyl)-N-((2^2S,6^3S,4S)-1^1-ethyl-1^2-(2-((S)-1-methoxyethyl)pyridin-3-yl)-10,10-dimethyl-5,7-dioxo-6^1,6^2,6^3,6^4,6^5,6^6-hexahydro-1^1H-8-oxa-2(4,2)-morpholina-1(5,3)-indola-6(1,3)-pyridazinacycloundecaphane-4-yl)-3-methylbutanamide]
IC50 (NCI-H358 (K-Ras G12C)): < 0.01 µM
IC50 (K-Ras G13C): 1 to 10 µM
IC50 (NRAS Q61R): > 10 µM
IC50 (NRAS Q61K): > 10 µM
IC50 (KRAS WT): > 10 µM
IC50 (KRAS G12S): > 10 µM
IC50 (KRAS Q61H): > 10 µM

CCn1c(-c2cccnc2[C@H](C)OC)c2c3cc(ccc31)-c1cccc(c1)C[C@H](NC(=O)[C@@H](COC1CN(C(=O)C#C[C@H]3COCCN3C)C1)C(C)C)C(=O)N1CCC[C@H](N1)C(=O)OCC(C)(C)C2 (atropisomer, axis not shown) [Example A644]
IC50 (NCI-H358 (K-Ras G12C)): < 0.01 µM
IC50 (K-Ras G13C): 1 to 10 µM
IC50 (NRAS Q61R): > 10 µM
IC50 (NRAS Q61K): > 10 µM
IC50 (KRAS WT): > 10 µM
IC50 (KRAS G12S): > 10 µM
IC50 (KRAS Q61H): > 10 µM

CCn1c(-c2cccnc2[C@H](C)OC)c2c3cc(ccc31)-c1cccc(c1)C[C@H](NC(=O)[C@@H](COC1CN(C(=O)C#C[C@@H]3OCCCN3C)C1)C(C)C)C(=O)N1CCC[C@H](N1)C(=O)OCC(C)(C)C2 (atropisomer, axis not shown) [Example A648]
IC50 (NCI-H358 (K-Ras G12C)): 0.01 to 0.1 µM
IC50 (K-Ras G13C): 1 to 10 µM
IC50 (NRAS Q61R): > 10 µM
IC50 (NRAS Q61K): > 10 µM
IC50 (KRAS WT): 1 to 10 µM
IC50 (KRAS G12S): > 10 µM
IC50 (KRAS Q61H): > 10 µM

CCn1c(-c2cccnc2[C@H](C)OC)c2c3cc(ccc31)-c1cnc(o1)C[C@H](NC(=O)[C@@H](COC1CN(C(=O)C#CC(C)(C)N(C)C)C1)C(C)C)C(=O)N1CCC[C@H](N1)C(=O)OCC(C)(C)C2 (atropisomer, axis not shown) [Example A649]
IC50 (NCI-H358 (K-Ras G12C)): 0.01 to 0.1 µM
IC50 (K-Ras G13C): > 10 µM
IC50 (NRAS Q61R): > 10 µM
IC50 (NRAS Q61K): > 10 µM
IC50 (KRAS WT): > 10 µM
IC50 (KRAS G12S): > 10 µM
IC50 (KRAS Q61H): > 10 µM

CCn1c(-c2cccnc2[C@H](C)OC)c2c3cc(ccc31)-c1csc(n1)C[C@H](NC(=O)[C@H](C(C)C)N(C)C(=O)N1CCC3(CC1)CN(C(=O)/C=C/CN(C)C)C3)C(=O)N1CCC[C@H](N1)C(=O)OCC(C)(C)C2 (atropisomer, axis not shown) [Example A650]
IC50 (NCI-H358 (K-Ras G12C)): 0.01 to 0.1 µM
IC50 (K-Ras G13C): 0.01 to 0.1 µM
IC50 (NRAS Q61R): 0.1 to 1 µM
IC50 (NRAS Q61K): 0.01 to 0.1 µM
IC50 (KRAS WT): 0.1 to 1 µM
IC50 (KRAS G12S): 0.1 to 1 µM
IC50 (KRAS Q61H): 0.01 to 0.1 µM

CCn1c(-c2cccnc2[C@H](C)OC)c2c3cc(ccc31)-c1csc(n1)C[C@H](NC(=O)[C@H](C(C)C)N(C)C(=O)N1CCC13CN(C(=O)C#CC(C)(C)N(C)C)C3)C(=O)N1CCC[C@H](N1)C(=O)OCC(C)(C)C2 (atropisomer, axis not shown) [Example A656]
IC50 (NCI-H358 (K-Ras G12C)): 0.01 to 0.1 µM
IC50 (K-Ras G13C): 1 to 10 µM
IC50 (NRAS Q61R): 0.1 to 1 µM
IC50 (NRAS Q61K): 0.1 to 1 µM
IC50 (KRAS WT): 0.1 to 1 µM
IC50 (KRAS G12S): 0.1 to 1 µM
IC50 (KRAS Q61H): 0.01 to 0.1 µM
